Data from patent publication US8815775B2 (priority 2010, dated 2014).

Experiment: log P by HPLC (EEC Directive 79/831 Annex V.A8)
Assay type: physicochemical
Details: HPLC with aqueous formic acid/acetonitrile eluents, pH 2.7; HCOOH; read-out: log P (HCOOH)
Experimental: The log P values were measured according to EEC Directive 79/831 Annex V.A8 by HPLC (high-performance liquid chromatography).
The LC-MS determination within the acidic range is effected at pH 2.7 with 0.1% aqueous formic acid and acetonitrile (contains 0.1% formic acid) as eluents; linear gradient from 10% acetonitrile to 95% acetonitrile.
The calibration is carried out using unbranched alkan-2-ones (having 3 to 16 carbon atoms) with known log P values (determination of the log P values by the retention times using linear interpolation between two successive alkanones). The lambda-maX values were determined in the maxima of the chromatographic signals using the UV spectra from 200 nm to 400 nm.

Row | Compound | chromatographic logP
1 | CC(C)(C)OC(=O)N1CCC(O)(c2nc(Br)cs2)CC1 [IV-1, tert-Butyl 4-(4-bromo-1,3-thiazol-2-yl)-4-hydroxypiperidine-1-carboxylate] | 2.74
2 | CC(C)(C)OC(=O)N1CCC(F)(c2nc(Br)cs2)CC1 [Va-1, tert-Butyl 4-(4-bromo-1,3-thiazol-2-yl)-4-fluoropiperidine-1-carboxylate] | 3.94

Same assay, conditions: HPLC with aqueous formic acid/acetonitrile eluents, pH 2.7; read-out: log P (pH2.7)

Row | Compound | chromatographic logP
3 | CN(C(=O)c1csc(C2(F)CCN(C(=O)Cn3nc(C(F)F)cc3C(F)F)CC2)n1)C1CCCc2ccccc21 (racemic) [I-a-4, (±)-2-(1-{[3,5-bis(Difluoromethyl)-1H-pyrazol-1-yl]acetyl}-4-fluoropiperidin-4-yl)-N-methyl-N-(1,2,3,4-tetrahydronaphthalen-1-yl)-1,3-thiazole-4-carboxamide] | 3.56
4 | CCOC(=O)c1csc(C2(F)CCN(C(=O)Cn3nc(C(F)F)cc3C(F)F)CC2)n1 [IXa-1, Ethyl 2-(1-{[3,5-bis(difluoromethyl)-1H-pyrazol-1-yl]acetyl}-4-fluoropiperidin-4-yl)-1,3-thiazole-4-carboxylate] | 2.82
5 | CCOC(=O)c1csc(C2(F)CCNCC2)n1 [VII-1, 4-[4-(Ethoxycarbonyl)-1,3-thiazol-2-yl]-4-fluoropiperidinium chloride] | 0.39
6 | CCOC(=O)c1csc(C2(F)CCN(C(=O)OC(C)(C)C)CC2)n1 [VIa-1, tert-Butyl 4-[4-(ethoxycarbonyl)-1,3-thiazol-2-yl]-4-fluoropiperidine-1-carboxylate] | 3.47
7 | O=C(O)c1csc(C2(F)CCN(C(=O)Cn3nc(C(F)F)cc3C(F)F)CC2)n1 [Xa-1, 2-(1-{[3,5-bis(Difluoromethyl)-1H-pyrazol-1-yl]acetyl}-4-fluoropiperidin-4-yl)-1,3-thiazole-4-carboxylic acid] | 1.96
